# Data as given in PubChem BioAssay (NCI).
#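 Step 1: Grow cells in 96-well plates. Step 2: Expose to compound for 48 hours at 5 concentrations. Step 3: Interpolate endpoints linearly; if unreached, use highest concentration. At the TGI there is no net growth.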
# What was measured:
# Experiment in all cases: NCI tumour cell line growth inhibition, 48 h
# CAKI-1 renal = tested on: CAKI-1 renal
# DLD-1 colon = tested on: DLD-1 colon
# M19-MEL melanoma = tested on: M19-MEL melanoma
# DMS 114 small cell lung = tested on: DMS 114 small cell lung
# DMS 273 small cell lung = tested on: DMS 273 small cell lung
# HOP-18 NSCLC = tested on: HOP-18 NSCLC
# SNB-78 CNS = tested on: SNB-78 CNS
# LXFL 529 NSCLC = tested on: LXFL 529 NSCLC
# RXF-631 renal = tested on: RXF-631 renal
# KM20L2 colon = tested on: KM20L2 colon
# XF 498 CNS = tested on: XF 498 CNS
structure (smiles),measurement,setting,value
O=C1CC(c2ccco2)C2(C(=O)NC(=O)NC2=O)C(c2ccco2)C1 (stereo not given),TGI,CAKI-1 renal,> 75 µM
Oc1ccccc1C(c1cc2c(cc1O)OCO2)N1CCOCC1 (stereo not given),TGI,CAKI-1 renal,35.9 µM
CCOC(=O)C1=C(C)N(c2ccccc2)C2=C(C(=O)N(c3ccccc3)C2c2ccccc2)C1c1ccccc1 (stereo not given),TGI,CAKI-1 renal,> 100 µM
same,TGI,DLD-1 colon,> 100 µM
same,TGI,M19-MEL melanoma,> 100 µM
same,TGI,DMS 114 small cell lung,> 100 µM
same,TGI,DMS 273 small cell lung,> 100 µM
same,TGI,HOP-18 NSCLC,> 100 µM
same,TGI,SNB-78 CNS,> 100 µM
same,TGI,LXFL 529 NSCLC,> 100 µM
same,TGI,RXF-631 renal,> 100 µM
same,TGI,KM20L2 colon,> 100 µM
same,TGI,XF 498 CNS,> 100 µM
COc1ccc(Nc2c(C#N)c3n(c4ccccc24)c2ccccc2[n+]3C)cc1OC,TGI,CAKI-1 renal,4.33 µM
N#CCCN(c1ccc(C=Nc2cccc([N+](=O)[O-])c2)cc1)S(=O)(=O)c1ccccc1,TGI,CAKI-1 renal,> 100 µM
same,TGI,DLD-1 colon,> 100 µM
same,TGI,DMS 114 small cell lung,> 100 µM
same,TGI,DMS 273 small cell lung,> 100 µM
same,TGI,SNB-78 CNS,> 100 µM
same,TGI,LXFL 529 NSCLC,> 100 µM
same,TGI,RXF-631 renal,> 100 µM
same,TGI,XF 498 CNS,> 100 µM
COc1ccc2c(c1)c1c(n2CCN2CCOCC2)-c2ccccc2CC1,TGI,CAKI-1 renal,> 100 µM
Cc1c(/C=N\NC(=S)N2CCN(C(=S)N/N=C\c3c(C)n(C)n(-c4ccccc4)c3=O)CC2)c(=O)n(-c2ccccc2)n1C,TGI,CAKI-1 renal,> 100 µM
CO[C@@H](C(=O)OC1C=CC2(CC1)C(=O)N(C)c1ccccc12)c1ccccc1 (stereo not given in full),TGI,CAKI-1 renal,> 100 µM
Nc1nc2ncc(SCc3ccc(C(=O)NC(CCC(=O)O)C(=O)O)cc3)cc2c(=O)[nH]1 (stereo not given),TGI,CAKI-1 renal,> 100 µM
CC(=O)NC1C(OCc2ccccc2)OC(CO)C(O)C1OCC(=O)N[C@@H](C)C(=O)N[C@H](CCC(=O)NCCNCCNc1c2ccccc2nc2cccc([N+](=O)[O-])c12)C(N)=O (stereo not given in full),TGI,CAKI-1 renal,69 µM
c1ccc(C[P+]2(c3ccccc3)c3ccccc3-c3ccccc32)cc1,TGI,CAKI-1 renal,> 100 µM
CC(C)=CCN1CC(C)C(=O)Nc2cc(Cl)ccc21 (stereo not given),TGI,CAKI-1 renal,55.5 µM
O=c1[nH]cnc2c(C3OC(CO)C(O)C3O)c[nH]c12 (stereo not given),TGI,CAKI-1 renal,> 100 µM
Cc1c(Cl)ccc2c(=O)c3cccc(CC(=O)O)c3oc12,TGI,CAKI-1 renal,> 100 µM
CC(C)C(Sc1nc(-c2ccccc2)c(-c2ccccc2)[nH]1)C(=O)NNC(=S)Nc1ccccc1 (stereo not given),TGI,DLD-1 colon,52 µM
same,TGI,M19-MEL melanoma,33.4 µM
same,TGI,DMS 273 small cell lung,34.8 µM
same,TGI,SNB-78 CNS,79.6 µM
same,TGI,LXFL 529 NSCLC,33.8 µM
same,TGI,KM20L2 colon,37.6 µM
same,TGI,XF 498 CNS,32.7 µM
COc1ccc(N2C(=O)C3c4[nH]c5ccc([N+](=O)[O-])cc5c4C4CCC(C(C)(C)C)CC4C3C2=O)cc1 (stereo not given),TGI,CAKI-1 renal,> 100 µM
[N-]=[N+]=Nc1c(Cl)c(=O)n(-c2ccccc2)c2ccccc12,TGI,CAKI-1 renal,50.5 µM
